Tested on: Venturia inaequalis
Experiment: Combination of pyrimethanil and dodine in controlling apple scab: curative treatment of inoculated apple plants
Format: in vivo
Details: for Practical efficacy: treated 3 days after inoculation, scored one month after inoculation; for Protection (in words): used alone
Procedure: Example: Combination of pyrimethanil and dodine in controlling apple scab
The fungicides evaluated are the following:
The fungicidal compositions evaluated are the following:
Apple plants (var. Melrose Golden) at the 5-6-leaf stage are inoculated with an aqueous suspension containing 150 000 spores of Venturia inaequalis/ml of inoculum. The plants are then placed in a climatic cell at 16-18° C., 100% RH (relative humidity) for 3 days. They are then treated with the fungicidal compositions at the doses cited above (12 repeats/dose) in a plant protection mixture at 500 l/ha and are again placed under the conditions described above. One month after the inoculation, scores are awarded. This consists in estimating the diseased leaf surface area in the two leaf stages sensitive to the disease and, by comparing with an untreated contaminated control, in defining the percentage efficacy according to the following formula:
% practical efficacy=100×(% contamination Control−% contamination Trial)/% contamination Control
The theoretical efficacy according to the Colby formula is calculated based on the following formula:
% theoretical efficacy A+B=% practical eff. A+% practical eff. B−(% practical eff. A×% practical eff. B/100)

Compound: Cc1cc(C)nc(Nc2ccccc2)n1 [pyrimethanil]
- Practical efficacy (pyrimethanil 50 g/ha alone, apple plants var. Melrose Golden): 65.4%
- Practical efficacy (pyrimethanil 100 g/ha alone): 65.4%
- Practical efficacy (pyrimethanil 200 g/ha alone): 61.5%
- Protection (in words): partial protection

Compound: dodecylguanidine monoacetate [dodine]
- Practical efficacy (dodine 150 g/ha alone): 30.8%
- Practical efficacy (dodine 300 g/ha alone): 76.9%
- Practical efficacy (dodine 600 g/ha alone): 75%
- Protection (in words): partial protection
